# According to patent US8188090B2, “Naphthylacetic acids” (Hoffman-La Roche Inc., priority 2008, dated 2012):
# Columns and labels:
# [1] = target: T1, human CRTH2 (Homo sapiens, UniProt Q9Y5Y4); assay: Human CRTH2 Receptor Binding Assay (whole cell, [3H]ramatroban); design: expressed in transfected cells; host or cells: CHO-K1; conditions: whole CHO-K1 cells stably expressing human CRTH2 and G-alpha16; 20 nM [3H]ramatroban; 1 hour, room temperature
# T1 sequence (Q9Y5Y4 1-395): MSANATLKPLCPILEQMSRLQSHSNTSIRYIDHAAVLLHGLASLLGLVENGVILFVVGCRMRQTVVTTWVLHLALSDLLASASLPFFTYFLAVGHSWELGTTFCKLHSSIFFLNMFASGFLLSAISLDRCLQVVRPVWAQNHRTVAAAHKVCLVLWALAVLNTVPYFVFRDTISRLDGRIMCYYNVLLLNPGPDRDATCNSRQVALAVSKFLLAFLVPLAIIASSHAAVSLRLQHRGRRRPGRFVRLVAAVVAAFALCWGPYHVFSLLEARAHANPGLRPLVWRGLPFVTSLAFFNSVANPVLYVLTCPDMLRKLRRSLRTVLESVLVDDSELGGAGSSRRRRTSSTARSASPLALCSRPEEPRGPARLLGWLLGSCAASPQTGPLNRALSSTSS
# Description: A whole cell receptor binding assay using [^3H]ramatroban as the competing radioactive ligand was employed to evaluate the compound binding activity to human CRTH2. The radioactive ligand [^3H]ramatroban was synthesized according to Sugimoto et. al. (Eur. J. Pharmacol. 524, 30-37, 2005) to a specific activity of 42 Ci/mmol.
# A cell line stably expressing human CRTH2 was established by transfecting CHO-K1 cells with two mammalian expression vectors that harbored human CRTH2 and G-alpha16 cDNAs, respectively, using FuGene® 6 transfection reagent (from Roche). Stable clones expressing CRTH2 were selected by staining each clone with BM16 (BD Pharmingen™ from BD Biosciences, a division of Becton, Dickinson and Company), which is a rat monoclonal antibody to human CRTH2. The cells were maintained as monolayer cultures in Ham's F-12 medium containing 10% fetal bovine serum, 100 units/mL penicillin, 100 μg/mL streptomycin, 2 mM glutamine, 0.5 mg/mL G418 (geneticin) for CRTH2, and 0.2 mg/mL hygromycin-B (for G-alpha 16). For whole cell receptor binding assay, the monolayer cells were rinsed once with PBS (phosphate buffered saline), dissociated using ethylenediaminetetraacetate (Versene™ EDTA from Lonza Inc.), and suspended in PBS containing 10 mM MgCl2 and 0.06% BSA (bovine serum albumin) at 1.5×10^6 cells/mL.
# The binding reactions (0.2 mL) were performed in 96-well plates at room temperature in PBS containing 1.5×10^5 cells, 10 mM MgCl2, 0.06% BSA, 20 nM [^3H]ramatroban, and test compound at various concentrations. After 1 hour of binding reactions, the cells were harvested on GF™/B filter microplates (microtiter plates with embedded glass fiber from PerkinElmer, Inc.) and washed 5 times with PBS using a Filtermate™ Harvester (a cell harvester that harvests and washes cells from microplates from PerkinElmer, Inc.). The radioactivities bound to the cells were determined using a microplate scintillation counter (TopCount® NXT, from PerkinElmer, Inc.) after adding 50 μL of Microscint™ 20 scintillation fluid (from PerkinElmer, Inc.) to each well of the filter plates. The radioactivity from non-specific binding was determined by replacing compound with 10 μM of 15(R)-15-methyl PGD2 (from Cayman Chemical Company) in the reaction mixtures. The radioactivity bound to the cells in the absence of compound (total binding) was determined by replacing compound with 0.25% of DMSO (dimethyl sulfoxide) in the reaction mixture. Specific binding data were obtained by subtracting the radioactivity of non-specific binding from each binding data.
# The IC50 value is defined as the concentration of the tested compound that is required for 50% inhibition of total specific binding. In order to calculate the IC50 value, the percent inhibition data were determined for 7 concentrations for each compound. The percent inhibition for a compound at each concentration was calculated according to the following formula, [1-(specific binding in the presence of compound)/(total specific binding)]×100. The IC50 value was then obtained by fitting the percent inhibition data to a sigmoidal dose-response (4 parameter logistic) model in the XLfit® software Excel add-in program [from ID Business Solutions Ltd., model 205, where F(x)=(A+(B−A)/(1+((C/x)^D)))].
# [2] = target: T1, human CRTH2; assay: Calcium Flux Assay Using Fluorometric Imaging Plate Reader (FLIPR); assay type: cell-based; design: expressed in transfected cells; host or cells: CHO-K1 (previously transfected with G-alpha 16); conditions: CHO-K1 cells transfected with G-alpha 16 and human CRTH2 receptor; inhibition of ligand (DK-PGD2) induced Ca2+ flux
# Experimental: Calcium Flux Assay Using Fluorometric Imaging Plate Reader Cell Culture Conditions:
# CHO-K1 cells previously transfected with G-alpha 16 were subsequently transfected with the human CRTH2 receptor and the neomycin resistance gene. Following selection in 800 μg/mL G418 (geneticin), individual clones were assayed for their receptor expression based on staining with an anti human CRTH2 IgG, followed by assaying for their response to 13,14-dihydro-15-keto Prostaglandin D2 (DK-PDG2) (ligand) in the Ca^2+Flux assay. Positive clones were then cloned by limiting dilution cloning. The transfected cells were cultured in Ham's F-12 medium supplemented with 10% fetal bovine serum, 2 mM glutamine, 100 U/mL penicillin/100 μg/mL streptomycin, 200 μg/mL hygromycin B, and 800 μg/mL G418 (geneticin). Cells were harvested with trypsin-EDTA (trypsin-ethylenediaminetetraacetic acid) and counted using ViaCount® reagent (from Guava Technologies, Inc. which contains two DNA-binding dyes that enable the reagent user to distinguish between viable and non-viable cells). The cell suspension volume was adjusted to 2.5×10^5 cells/mL with complete growth media. Aliquots of 50 μL were dispensed into BD Falcon™ 384 well black/clear microplates (from BD Biosciences, a division of Becton, Dickinson and Company) and the microplates were placed in a 37° C. CO2 incubator overnight. The following day, the microplates were used in the assay.
# Loading Buffer containing dye (from the FLIPR® Calcium 3 Assay Kit from Molecular Devices, a division of MDS Analytical Technologies and MDS Inc.) was prepared by dissolving the contents of one bottle into 200 mL Hank's Balanced Salt Solution containing 20 mM HEPES (4-(2-hydroxyethyl)-1-piperazineethanesulfonic acid) and 2.5 mM probenecid. Growth media was removed from the cell plates and 25 μL of Hank's Balanced Salt Solution (HBSS) containing 20 mM HEPES, 0.05% BSA and 2.5 mM probenecid was added to each well followed by 25 μL of diluted dye using a Multidrop dispenser. The plates were then incubated for 1 hour at 37° C.
# During the incubation, test compound plates were prepared by adding 90 μL of HBSS/20 mM HEPES/0.005% BSA buffer to the 2 μL of serial diluted compounds. To prepare serial diluted compounds, 20 mM stocks of compounds were dissolved in 100% DMSO. The compound dilution plate was set up as follows: well #1 received 5 μL of compound plus 10 μL of DMSO. Wells 2-10 received 10 μL of DMSO. 5 μL was mixed and transferred from well #1 into well #2. 1:3 serial dilutions were continued out 10 steps. […]
# After incubation, both the cell and “assay plate” plates were brought to the fluorometric imaging plate reader (FLIPR®) and 20 μL of the diluted compounds were transferred to the cell plates by the FLIPR®. […] During the assay, fluorescence readings were taken simultaneously from all 384 wells of the cell plate every 1.5 seconds. Five readings were taken to establish a stable baseline, then 20 μL of sample was rapidly (30 μL/sec) and simultaneously added to each well of the cell plate. The fluorescence was continuously monitored before, during and after sample addition for a total elapsed time of 100 seconds. Responses (increase in peak fluorescence) in each well following agonist addition were determined. The initial fluorescence reading from each well, prior to ligand stimulation, was used as a zero baseline value for the data from that well. The responses were expressed as % inhibition of the buffer control. […]
Compound,IC50 [1] [nM],IC50 [2] [nM]
"COc1ccccc1N1CCN(C(=O)c2c(C)c(CC(=O)O)cc3ccc(F)cc23)CC1 [Example 2-8, {6-Fluoro-4-[4-(2-methoxy-phenyl)-piperazine-1-carbonyl]-3-methyl-naphthalen-2-yl}-acetic acid]",458,> 5000
"CCc1ccccc1N1CCN(C(=O)c2c(C)c(CC(=O)O)cc3ccc(F)cc23)CC1 [Example 2-10, {4-[4-(2-Ethyl-phenyl)-piperazine-1-carbonyl]-6-fluoro-3-methyl-naphthalen-2-yl}-acetic acid]",450,> 5000
"Cc1c(CC(=O)O)cc2ccc(F)cc2c1C(=O)N1CC2(C1)CN(S(=O)(=O)c1ccccc1)C2 [Example 1-10, [4-(6-Benzenesulfonyl-2,6-diaza-spiro[3.3]heptane-2-carbonyl)-6-fluoro-3-methyl-naphthalen-2-yl]-acetic acid]",207,–
"COc1ccc(N2CCN(C(=O)c3c(C)c(CC(=O)O)cc4ccc(F)cc34)CC2)cc1 [Example 2-12, {6-Fluoro-4-[4-(4-methoxy-phenyl)-piperazine-1-carbonyl]-3-methyl-naphthalen-2-yl}-acetic acid]",106,–
"Cc1c(CC(=O)O)cc2ccc(F)cc2c1C(=O)N1CCN(c2ccccc2C(F)(F)F)CC1 [Example 2-15, {6-Fluoro-3-methyl-4-[4-(2-trifluoromethyl-phenyl)-piperazine-1-carbonyl]-naphthalen-2-yl}-acetic acid]",253,> 5000
"CC(=O)N1CCC(Oc2cc(CC(=O)O)cc3ccc(F)cc23)CC1 [Example 5-1, [4-(1-Acetyl-piperidin-4-yloxy)-6-fluoro-naphthalen-2-yl]-acetic acid]",163,> 5000

# These reach a lower IC50 [1]. Values come first.
IC50 [1] [nM],IC50 [2] [nM],Compound
9.9,–,"O=C(O)Cc1cc(OC2CCN(S(=O)(=O)C3CCCC3)CC2)c2cc(F)ccc2c1 [Example 4-5, [4-(1-Cyclopentanesulfonyl-piperidin-4-yloxy)-6-fluoro-naphthalen-2-yl]-acetic acid]"
11.2,–,"Cc1c(CC(=O)O)cc2ccc(F)cc2c1C(=O)N1CCN(c2ccc(C(F)(F)F)cn2)CC1 [Example 2-22, {6-Fluoro-3-methyl-4-[4-(5-trifluoromethyl-pyridin-2-yl)-piperazine-1-carbonyl]-naphthalen-2-yl}-acetic acid]"
20.3,> 5000,"CCS(=O)(=O)N1CCC(Oc2cc(CC(=O)O)cc3ccc(F)cc23)CC1 [Example 4-2, [4-(1-Ethanesulfonyl-piperidin-4-yloxy)-6-fluoro-naphthalen-2-yl]-acetic acid]"
9.1,–,"Cc1c(CC(=O)O)cc2ccc(F)cc2c1C(=O)N1CCN(S(=O)(=O)C2CC2)CC1 [Example 1-6, [4-(4-Cyclopropanesulfonyl-piperazine-1-carbonyl)-6-fluoro-3-methyl-naphthalen-2-yl]-acetic acid]"
6.9,–,"Cc1c(CC(=O)O)cc2ccc(F)cc2c1C(=O)N1CCN(S(=O)(=O)C2CCCC2)CC1 [Example 1-8, [4-(4-Cyclopentanesulfonyl-piperazine-1-carbonyl)-6-fluoro-3-methyl-naphthalen-2-yl]-acetic acid]"
13.4,–,"O=C(O)Cc1cc(OC2CCN(C(=O)c3ccccc3)CC2)c2cc(F)ccc2c1 [Example 5-6, [4-(1-Benzoyl-piperidin-4-yloxy)-6-fluoro-naphthalen-2-yl]-acetic acid]"
24.5,–,"CCNC(=O)N1CCC(Oc2cc(CC(=O)O)cc3ccc(F)cc23)CC1 [Example 6-1, [4-(1-Ethylcarbamoyl-piperidin-4-yloxy)-6-fluoro-naphthalen-2-yl]-acetic acid]"
19.2,–,"CCS(=O)(=O)N1CCN(C(=O)c2c(C)c(CC(=O)O)cc3ccc(F)cc23)CC1 [Example 1-1, [4-(4-Ethanesulfonyl-piperazine-1-carbonyl)-6-fluoro-3-methyl-naphthalen-2-yl]-acetic acid]"
